ChEMBL document CHEMBL6083262, “Stereorandomized Oncocins with Preserved Ribosome Binding and Antibacterial Activity” (J Med Chem, 2024)
Values after ≈ are worked out from the molar mass of the structure shown. Active and inactive are the calls of the source. The rule behind the calls is not given here. Non-standard residues stand in square brackets, D forms with d. Residues, ends and D or L forms follow the SMILES beside them. Orn = NCCC[C@H](N)C(=O)O

Legend:
Staphylococcus aureus [1] = assay: Antimicrobial activity against methicillin-resistant Staphylococcus aureus COL incubated for 16 to 20 hrs in 12.5 % muller hinton medium by broth microdilution method; format: functional; conditions: time 16-20 hrs
Staphylococcus aureus [2] = assay: Antimicrobial activity against methicillin-resistant Staphylococcus aureus COL incubated for 16 to 20 hrs in full muller hinton medium by broth microdilution method; format: functional; conditions: time 16-20 hrs
Pseudomonas aeruginosa [3] = assay: Antibacterial activity against multidrug-resistant Pseudomonas aeruginosa PA14 2P4 harboring pmrB mutant incubated for 16 to 20 hrs in full muller hinton medium by broth microdilution method; format: functional; conditions: time 16-20 hrs
Pseudomonas aeruginosa [4] = assay: Antibacterial activity against multidrug-resistant Pseudomonas aeruginosa clinical isolate ZEM9A incubated for 16 to 20 hrs in full muller hinton medium by broth microdilution method; format: functional; conditions: time 16-20 hrs
Klebsiella pneumoniae [5] = assay: Antibacterial activity against multidrug-resistant Klebsiella pneumoniae clinical isolate OXA-48 incubated for 16 to 20 hrs in 12.5 % muller hinton medium by broth microdilution method; format: functional; conditions: time 16-20 hrs
Lipid bilayer [6] = assay: Induction of membrane disruption in egg yolk phosphatidyl glycerol at 10 ug/ml by measuring vesicle leakage; conditions: dose 10.0 µg/ml
Klebsiella pneumoniae [7] = assay: Antibacterial activity against multidrug-resistant Klebsiella pneumoniae clinical isolate OXA-48 incubated for 16 to 20 hrs in full muller hinton medium by broth microdilution method; format: functional; conditions: time 16-20 hrs
Pseudomonas aeruginosa [8] = assay: Antibacterial activity against multidrug-resistant Pseudomonas aeruginosa PA14 4.18 harboring pmrB mutant incubated for 16 to 20 hrs in full muller hinton medium by broth microdilution method; format: functional; conditions: time 16-20 hrs
Bacteria = assay: Binding affinity to his-tagged DnaK (unknown origin) expressed in Escherichia coli BL21 (DE3) in dilute muller hinton medium by microscale thermophoresis analysis
rRNA = assay: Binding affinity to [gamma32 P-ATP] labeled Escherichia coli MG1655 23S ribosomal RNA (5-CCCTTGGGACCTACTTC-3') at U2506 position assessed as increase in band intensity at 1 uM incubated for 2.5 hrs in full muller hinton medium by CMCT based gel electrophoresis; format: nucleic-acid assay
[9] = Hemolytic activity in human RBC incubated for 4 hrs; format: toxicity, cell-based; conditions: erythrocyte
Lipid bilayer [10] = assay: Induction of membrane disruption in egg yolk phosphatidyl choline at 10 ug/ml by measuring vesicle leakage; conditions: dose 10.0 µg/ml
Klebsiella pneumoniae [11] = assay: Antimicrobial activity against Klebsiella pneumoniae NCTC 418 incubated for 16 to 20 hrs in 12.5 % muller hinton medium by broth microdilution method; format: functional; conditions: time 16-20 hrs
Pseudomonas aeruginosa [12] = assay: Antibacterial activity against multidrug-resistant Pseudomonas aeruginosa PA14 4.13 harboring phoQ mutant incubated for 16 to 20 hrs in full muller hinton medium by broth microdilution method; format: functional; conditions: time 16-20 hrs
Klebsiella pneumoniae [13] = assay: Antimicrobial activity against Klebsiella pneumoniae NCTC 418 incubated for 16 to 20 hrs in full muller hinton medium by broth microdilution method; format: functional; conditions: time 16-20 hrs
Pseudomonas aeruginosa [14] = assay: Antibacterial activity against multidrug-resistant Pseudomonas aeruginosa PA14 incubated for 16 to 20 hrs in full muller hinton medium by broth microdilution method; format: functional; conditions: time 16-20 hrs
Enterobacter cloacae [15] = assay: Antibacterial activity against multidrug-resistant Enterobacter cloacae incubated for 16 to 20 hrs in full muller hinton medium by broth microdilution method; format: functional; conditions: time 16-20 hrs
Pseudomonas aeruginosa [16] = assay: Antibacterial activity against multidrug-resistant Pseudomonas aeruginosa clinical isolate ZEM-1A incubated for 16 to 20 hrs in full muller hinton medium by broth microdilution method; format: functional; conditions: time 16-20 hrs
Pseudomonas aeruginosa [17] = assay: Antimicrobial activity against Pseudomonas aeruginosa PAO1 incubated for 16 to 20 hrs in full muller hinton medium by broth microdilution method; format: functional; conditions: time 16-20 hrs
Pseudomonas aeruginosa [18] = assay: Antibacterial activity against multidrug-resistant Pseudomonas aeruginosa PA14 4.13 harboring phoQ mutant incubated for 16 to 20 hrs in 12.5 % muller hinton medium by broth microdilution method; format: functional; conditions: time 16-20 hrs
Acinetobacter baumannii [19] = assay: Antimicrobial activity against Acinetobacter baumannii ATCC 19606 incubated for 16 to 20 hrs in 12.5 % muller hinton medium by broth microdilution method; format: functional; conditions: time 16-20 hrs
Pseudomonas aeruginosa [20] = assay: Antibacterial activity against multidrug-resistant Pseudomonas aeruginosa PA14 2P4 harboring pmrB mutant incubated for 16 to 20 hrs in 12.5 % muller hinton medium by broth microdilution method; format: functional; conditions: time 16-20 hrs
Escherichia coli [21] = assay: Antimicrobial activity against Escherichia coli W3110 incubated for 16 to 20 hrs in 12.5 % muller hinton medium by broth microdilution method; format: functional; conditions: time 16-20 hrs
Pseudomonas aeruginosa [22] = assay: Antibacterial activity against multidrug-resistant Pseudomonas aeruginosa PA14 4.18 harboring pmrB mutant incubated for 16 to 20 hrs in 12.5 % muller hinton medium by broth microdilution method; format: functional; conditions: time 16-20 hrs
Pseudomonas aeruginosa [23] = assay: Antimicrobial activity against Pseudomonas aeruginosa PAO1 incubated for 16 to 20 hrs in 12.5 % muller hinton medium by broth microdilution method; format: functional; conditions: time 16-20 hrs
Escherichia coli [24] = assay: Antimicrobial activity against Escherichia coli W3110 incubated for 16 to 20 hrs in full muller hinton medium by broth microdilution method; format: functional; conditions: time 16-20 hrs
Acinetobacter baumannii [25] = assay: Antimicrobial activity against Acinetobacter baumannii ATCC 19606 incubated for 16 to 20 hrs in full muller hinton medium by broth microdilution method; format: functional; conditions: time 16-20 hrs
Enterobacter cloacae [26] = assay: Antibacterial activity against multidrug-resistant Enterobacter cloacae incubated for 16 to 20 hrs in 12.5 % muller hinton medium by broth microdilution method; format: functional; conditions: time 16-20 hrs
Pseudomonas aeruginosa [27] = assay: Antibacterial activity against multidrug-resistant Pseudomonas aeruginosa clinical isolate ZEM9A incubated for 16 to 20 hrs in 12.5 % muller hinton medium by broth microdilution method; format: functional; conditions: time 16-20 hrs
Pseudomonas aeruginosa [28] = assay: Antibacterial activity against multidrug-resistant Pseudomonas aeruginosa clinical isolate ZEM-1A incubated for 16 to 20 hrs in 12.5 % muller hinton medium by broth microdilution method; format: functional; conditions: time 16-20 hrs
Pseudomonas aeruginosa [29] = assay: Antibacterial activity against multidrug-resistant Pseudomonas aeruginosa PA14 incubated for 16 to 20 hrs in 12.5 % muller hinton medium by broth microdilution method; format: functional; conditions: time 16-20 hrs

Structure (SMILES) | MIC (Staphylococcus aureus [1]) [µg/mL] | MIC (Staphylococcus aureus [2]) [µg/mL] | MIC (Pseudomonas aeruginosa [3]) [µg/mL] | MIC (Pseudomonas aeruginosa [4]) [µg/mL] | MIC (Klebsiella pneumoniae [5]) [µg/mL] | MIC (Klebsiella pneumoniae [7]) [µg/mL] | MIC (Pseudomonas aeruginosa [8]) [µg/mL] | MHC [9] [µg/mL] | MIC (Klebsiella pneumoniae [11]) [µg/mL] | MIC (Pseudomonas aeruginosa [12]) [µg/mL] | MIC (Klebsiella pneumoniae [13]) [µg/mL] | MIC (Pseudomonas aeruginosa [14]) [µg/mL] | MIC (Enterobacter cloacae [15]) [µg/mL] | MIC (Pseudomonas aeruginosa [16]) [µg/mL] | MIC (Pseudomonas aeruginosa [17]) [µg/mL] | also measured
CCC(C)C(NC(=O)C(CCCNC(=N)N)NC(=O)C(CCCNC(=N)N)NC(=O)C1CCCN1C(=O)C1CCCN1C(=O)C(CCCNC(=N)N)NC(=O)C1CCCN1C(=O)C(CCCNC(=N)N)NC(=O)C1CCCN1C(=O)C(CC(C)C)NC(=O)C(Cc1ccc(O)cc1)NC(=O)C1CCCN1C(=O)C1CCCN1C(=O)C(CCCCN)NC(=O)C(CC(=O)O)NC(=O)C(N)C(C)C)C(=O)NC(Cc1ccc(O)cc1)C(=O)NC(CC(N)=O)C(=O)NC(CCCNC(=N)N)C(N)=O (stereo unspecified) (H-VDKPPYLPRPRPPRRIYNR-NH2; configuration not given here) | > 64 | > 64 | > 64 | > 64 | > 64 | > 64 | > 64 | > 1000 | > 16 | > 64 | > 64 | > 64 | > 64 | > 64 | > 64 | Activity (Lipid bilayer [6]): Active; Activity (Bacteria): inactive; Activity (rRNA): inactive; Activity (Lipid bilayer [10]): Active
CC[C@H](C)[C@H](NC(=O)[C@H](CCCN)NC(=O)[C@H](CCCNC(=N)N)NC(=O)[C@@H]1CCCN1C(=O)[C@@H]1CCCN1C(=O)[C@H](CCCNC(=N)N)NC(=O)[C@@H]1CCCN1C(=O)[C@H](CCCNC(=N)N)NC(=O)[C@@H]1CCCN1C(=O)[C@H](CC(C)C)NC(=O)[C@H](Cc1ccc(O)cc1)NC(=O)[C@@H]1CCCN1C(=O)[C@@H]1CCCN1C(=O)[C@H](CCCCN)NC(=O)[C@H](CC(=O)O)NC(=O)[C@@H](N)C(C)C)C(=O)N[C@@H](Cc1ccc(O)cc1)C(=O)N[C@@H](CC(N)=O)C(=O)N[C@@H](CCCN)C(N)=O (H-VDKPPYLPRPRPPR[Orn]IYN[Orn]-NH2) | > 64 | > 64 | > 64 | > 64 | 2 (≈ 0.867 µM) | 64 (≈ 27.8 µM) | > 32 | > 1000 | 4 (≈ 1.73 µM) | > 32 | 8 (≈ 3.47 µM) | > 32 | 32 (≈ 13.9 µM) | > 64 | > 64 | MIC (Pseudomonas aeruginosa [18]): 32 µg/mL (≈ 13.9 µM); MIC (Acinetobacter baumannii [19]): 8 µg/mL (≈ 3.47 µM); MIC (Pseudomonas aeruginosa [20]): 16 µg/mL (≈ 6.94 µM); MIC (Escherichia coli [21]): 2 µg/mL (≈ 0.867 µM); MIC (Pseudomonas aeruginosa [22]): 32 µg/mL (≈ 13.9 µM); MIC (Pseudomonas aeruginosa [23]): 16 µg/mL (≈ 6.94 µM); MIC (Escherichia coli [24]): 8 µg/mL (≈ 3.47 µM); MIC (Acinetobacter baumannii [25]): 64 µg/mL (≈ 27.8 µM); MIC (Enterobacter cloacae [26]): 1 µg/mL (≈ 0.434 µM); MIC (Pseudomonas aeruginosa [27]): 32 µg/mL (≈ 13.9 µM); MIC (Pseudomonas aeruginosa [28]): 16 µg/mL (≈ 6.94 µM); MIC (Pseudomonas aeruginosa [29]): 32 µg/mL (≈ 13.9 µM)
